Measured values from patent US11596644B2, “Method for treating post-prandial hypoglycemia” (AVOLYNT, priority 2018, dated 2023).
Marks after values point to notes of the source that are not given here.

System: STZ-induced diabetic rats
Assay: OGTT in STZ-induced diabetic rats (Example 8)
Assay type: in vivo, rat
Details: for Plasma glucose 0 hr: before dosing; for Plasma glucose 0 hr / Plasma glucose 0.5 hr / Plasma glucose 1 hr / Plasma glucose 2 hr / Plasma glucose 3 hr / ΔAUC (0-1) / ΔAUC (0-1) (% of Control): glucose 2 g/kg, mean ± S.E.M.
Procedure: Study in diabetic rats with glucose. Diabetic rats, induced by intravenous injection of streptozotocin (STZ; 40 mg/kg), were used to determining plasma glucose concentration (PG) 1 hr after oral glucose tolerance test (OGTT). […] Blood was collected via the caudal artery immediately before dosing and 0.5, 1, 2, and 3 hr after dosing. The glucose concentration measurement in plasma used Glucose CII-Test Wako kit (Wako Pure Chemicals Industries, Ltd., Osaka, Japan). The variables used for efficacy assessment were the measurement values of the plasma glucose concentration and the area under the curve for plasma glucose concentration through 1 hr after loading (ΔAUC0-1 hr). The ΔAUC0-1 hr for plasma glucose was calculated based on the trapezoid method using the change of plasma glucose concentrations from pre-value (0 hr).

## Cc1cc(OCCCNCC(C)(C)C(N)=O)ccc1Cc1c(O[C@@H]2O[C@H](CO)[C@@H](O)[C@H](O)[C@H]2O)n[nH]c1C(C)C [mizagliflozin, 3-(3-{4-[3-(β-D-glucopyranosyloxy)-5-isopropyl-1H-pyrazol-4-ylmethyl-]-3-methylphenoxy}propylamino)-2,2-dimethylpropionamide]
0.03 mg/kg oral
  Plasma glucose 0 hr: 128 ± 10 mg/dL
  Plasma glucose 0.5 hr: 356 ± 25 mg/dL
  Plasma glucose 1 hr: 371 ± 33 mg/dL
  Plasma glucose 2 hr: 172 ± 29 mg/dL
  Plasma glucose 3 hr: 91 ± 12 mg/dL
  ΔAUC (0-1): 174 ± 17 mg·h/dL
  ΔAUC (0-1) (% of Control): 90 ± 9 % of Control
0.1 mg/kg oral
  Plasma glucose 0 hr: 120 ± 12 mg/dL
  Plasma glucose 0.5 hr: 262 ± 27^y mg/dL
  Plasma glucose 1 hr: 305 ± 43 mg/dL
  Plasma glucose 2 hr: 238 ± 53 mg/dL
  Plasma glucose 3 hr: 137 ± 26 mg/dL
  ΔAUC (0-1): 117 ± 18^x mg · dL^−1 · hr
  ΔAUC (0-1) (% of Control): 60 ± 9^x % of Control
0.03 and 0.1 mg/kg oral, OGTT 2 g/kg
  PG elevation after glucose administration: inhibited PG elevation after glucose administration dose dependently
